Experiments:
[1] = test system: IL-2 release from stimulated Jurkat cells; assay: Human IL-2 Release Phenotypic Assay (Assay 3); type: cell-based; conditions: Jurkat cells (clone E6-1), 200 ng/ml PMA + 300 ng/ml ionomycin, IL-2 in supernatant by ELISA
Method: Human IL-2 Release Phenotypic Assay (Assay 3)
This assay measured the inhibition by MALT1 inhibitors of the IL-2 release from stimulated Jurkat cells, a human immortalized T lymphocyte cell line. IL-2 production from Jurkat cells is regulated by activation of NFκB signalling, which is in turn regulated by MALT1 protease activity.
Jurkat cells (clone E6-1, ATCC) were cultured in RPMI1640 supplemented with 10% (v/v) FBS and 1% (v/v) penicillin/streptomycin (100× liquid stocks). Cells were seeded in 96-well white tissue culture-treated plates (Perkin Elmer) at 50 000 cells/well and incubated overnight at 37° C., 5% CO2. Test compounds in DMSO at half-log dilutions were added to the cells and incubated for 30 mins. Final DMSO concentration was 0.5%. Cells were then stimulated with 200 ng/ml PMA+300 ng/ml ionomycin and incubated for 48 hours. IL-2 present in the supernatant was then measured by ELISA according to the kit instructions (ELISA MAX Deluxe Set Human IL-2, BioLegend). % inhibition was calculated for each well, using 30 μM of the commercially available MALT1 inhibitor, MLT-748, for 100% inhibition controls and no compound for 0% inhibition controls. IC50 values were calculated using GraphPad Prism using 4-parameter non-linear regression curve fit.

[2] = molecular target: FL hMALT1 enzyme (Homo sapiens (Human), UniProt Q9UDY8); assay: MALT1 Protease Assay 2 (Assay 2), higher sensitivity, cleavage of fluorogenic tetrapeptide substrate; type: biochemical; conditions: FL hMALT1 1-10 nM, Ac-LVSR-AMC 100 μM, 0.7 M sodium citrate, 30 min preincubation, 60 min read
Method: MALT1 Protease Assay 2 (Assay 2)
(§1) MALT1 protease activity was assessed in vitro by measuring the cleavage of a fluorogenic tetrapeptide substrate.
For a higher sensitivity assay, commercially available FL hMALT1 enzyme (Abcam, 1-10 nM) was incubated with substrate (Ac-LVSR-AMC, 100 μM) in reaction buffer comprising 50 mM HEPES (pH7.0), 25 mM KCl, 0.1% (v/v) CHAPS, 1 mM TCEP and 0.7 M sodium citrate.
(§2) Test compounds dissolved in DMSO were dispensed into assay plates (384-well, black, shallow ProxiPlates). 7 μl enzyme solution was added and incubated at room temperature for 30 minutes to allow compound binding to occur. 2 μl substrate solution was then added and the fluorescence (excitation 360 nm, emission 460 nm) read every 15 minutes using a suitable plate reader. Final assay DMSO concentration was 1%. Linearity over 60 minutes was confirmed, and assay signal was calculated by subtracting raw counts at time 0 from those at 60 minutes. % inhibition was calculated for each well, using no enzyme for 100% inhibition controls and no compound for 0% inhibition controls. IC50 values were calculated using GraphPad Prism using a 4-parameter non-linear regression curve fit.

[3] = molecular target: MALT1-GS-Ub (6-His-hMALT-1 residues 339-715 fused to ubiquitin) (Homo sapiens (Human), UniProt Q9UDY8); assay: MALT1 Protease Assay 1 (Assay 1), cleavage of fluorogenic tetrapeptide substrate; type: biochemical; conditions: MALT1-GS-Ub 300-600 nM, Ac-LVSR-AMC 100 μM, 30 min preincubation, 60 min read
Method: MALT1 Protease Assay 1 (Assay 1)
as §1
A protein (MALT1-GS-Ub) comprising 6-His-hMALT-1 (residues 339-715), fused to ubiquitin with an 8× GGS linker, was expressed in E. coli, and purified using chitin resin to remove contaminants followed by affinity chromatography purification and size-exclusion chromatography, according to standard protocols.
Briefly, MALT1-GS-Ub (300-600 nM) was incubated with substrate (Ac-LVSR-AMC, 100 μM) in reaction buffer comprising 50 mM HEPES (pH7.0), 25 mM KCl, 0.1% (v/v) CHAPS and 1 mM TCEP.
as §2

Sequence of FL hMALT1 enzyme (Q9UDY8 whole entry): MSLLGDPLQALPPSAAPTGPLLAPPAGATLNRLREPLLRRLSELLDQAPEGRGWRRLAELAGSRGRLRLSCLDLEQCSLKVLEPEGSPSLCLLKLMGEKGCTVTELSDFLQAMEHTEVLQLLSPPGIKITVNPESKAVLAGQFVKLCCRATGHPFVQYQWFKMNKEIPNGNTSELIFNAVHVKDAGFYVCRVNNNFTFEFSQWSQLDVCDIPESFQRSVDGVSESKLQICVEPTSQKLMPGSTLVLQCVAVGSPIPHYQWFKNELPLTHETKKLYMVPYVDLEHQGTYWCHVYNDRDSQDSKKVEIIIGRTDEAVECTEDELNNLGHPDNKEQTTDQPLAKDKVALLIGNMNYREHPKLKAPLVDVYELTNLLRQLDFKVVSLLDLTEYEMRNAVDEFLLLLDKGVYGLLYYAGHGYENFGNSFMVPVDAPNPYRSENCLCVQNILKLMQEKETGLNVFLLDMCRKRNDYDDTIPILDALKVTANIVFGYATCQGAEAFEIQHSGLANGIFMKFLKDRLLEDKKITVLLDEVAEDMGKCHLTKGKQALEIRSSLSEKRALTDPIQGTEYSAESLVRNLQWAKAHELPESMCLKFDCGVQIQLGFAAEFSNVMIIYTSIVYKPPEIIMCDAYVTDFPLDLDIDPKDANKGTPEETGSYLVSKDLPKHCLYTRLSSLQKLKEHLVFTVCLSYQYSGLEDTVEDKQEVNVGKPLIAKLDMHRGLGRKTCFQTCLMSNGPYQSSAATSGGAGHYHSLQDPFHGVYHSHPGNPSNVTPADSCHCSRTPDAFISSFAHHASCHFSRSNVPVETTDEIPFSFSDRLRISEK
Sequence of MALT1-GS-Ub (6-His-hMALT-1 residues 339-715 fused to ubiquitin) (Q9UDY8 other isoform, or with tags, fused parts or gaps): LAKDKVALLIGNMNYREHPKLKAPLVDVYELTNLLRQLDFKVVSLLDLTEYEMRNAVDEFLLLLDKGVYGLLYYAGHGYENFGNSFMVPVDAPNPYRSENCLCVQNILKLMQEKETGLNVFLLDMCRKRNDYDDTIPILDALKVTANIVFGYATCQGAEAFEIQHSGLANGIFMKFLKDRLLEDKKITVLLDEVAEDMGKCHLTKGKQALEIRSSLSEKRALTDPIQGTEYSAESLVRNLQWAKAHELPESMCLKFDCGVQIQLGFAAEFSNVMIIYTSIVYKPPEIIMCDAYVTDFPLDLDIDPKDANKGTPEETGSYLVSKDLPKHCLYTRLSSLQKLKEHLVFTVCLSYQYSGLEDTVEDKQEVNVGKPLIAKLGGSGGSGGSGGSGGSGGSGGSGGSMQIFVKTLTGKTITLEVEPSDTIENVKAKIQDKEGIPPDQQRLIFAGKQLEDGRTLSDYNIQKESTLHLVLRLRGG

Row | Structure (SMILES) | IC50 ([1]; Homo sapiens, Jurkat, 48 h) [nM] | IC50 [2] [nM] | IC50 ([1]; 48 hours) [nM] | IC50 [3] [nM]
1 | CC[C@@H]1CN(C(=O)Nc2cnc(-n3nccn3)c(Cl)c2)c2cncc(Br)c2N1C [Example 34, (R)-8-Bromo-N-(5-chloro-6-(2H-1,2,3-triazol-2-yl)pyridin-3-yl)-2-ethyl-1-methyl-2,3-dihydropyrido[3,4-b]pyrazine-4 (1H)-carboxamide] | 290 | 50 |  | 970
2 | CC1(C)CN(C(=O)Nc2cnc(-n3nccn3)c(C(F)(F)F)c2)c2cccc(Br)c2O1 [Example 23, N-(6-(2H-1,2,3-Triazol-2-yl)-5-(trifluoromethyl)pyridin-3-yl)-8-bromo-2,2-dimethyl-2,3-dihydro-4H-benzo[b][1,4]oxazine-4-carboxamide] | 290 | 110 |  | 860
3 | Cc1ncc2c(c1C#N)OC(C(F)(F)F)CN2C(=O)Nc1cnc(-n2nccn2)c(Cl)c1 (single isomer, unassigned) [Example 53, N-(5-Chloro-6-(2H-1,2,3-triazol-2-yl)pyridin-3-yl)-8-cyano-7-methyl-2-(trifluoromethyl)-2,3-dihydro-4H-pyrido[4,3-b][1,4]oxazine-4-carboxamide] | 390 | 60 |  | 
4 | CC1CN(C(=O)Nc2cnc(-n3nccn3)c(Cl)c2)c2cncc(Br)c2O1 (stereo not drawn) [Example 30, 8-Bromo-N-(5-chloro-6-(2H-1,2,3-triazol-2-yl)pyridin-3-yl)-2-methyl-2,3-dihydro-4H-pyrido[4,3-b][1,4]oxazine-4-carboxamide] | 420 | 1500 |  | 1500
5 | C[C@@H]1CN(C(=O)Nc2cnc(-n3nccn3)c(Cl)c2)c2cncc(Br)c2N1C [Example 26, (R)-8-Bromo-N-(5-chloro-6-(2H-1,2,3-triazol-2-yl)pyridin-3-yl)-1.2-dimethyl-2,3-dihydropyrido[3,4-b]pyrazine-4 (1H)-carboxamide] | 1300 | 110 |  | 800
6 | N#CC1CN(C(=O)Nc2cnc(-n3nccn3)c(C(F)(F)F)c2)c2cccc(Br)c2O1 (stereo not drawn) [Example 6, N-(6-(2H-1,2,3-Triazol-2-yl)-5-(trifluoromethyl)pyridin-3-yl)-8-bromo-2-cyano-2,3-dihydro-4H-benzo[b][1,4]oxazine-4-carboxamide] | 2100 | 100 |  | 700
7 | Cc1ncc2c(c1C#N)OC(C(F)(F)F)CN2C(=O)Nc1cnc(OC(F)F)c(Cl)c1 (single isomer, unassigned) [Example 61, N-(5-Chloro-6-(difluoromethoxy)pyridin-3-yl)-8-cyano-7-methyl-2-(trifluoromethyl)-2,3-dihydro-4H-pyrido[4,3-b][1,4]oxazine-4-carboxamide] | 286 | 21 |  | 
8 | CCC1CN(C(=O)Nc2cnc(-n3nccn3)c(Cl)c2)c2cncc(Br)c2O1 (single isomer, unassigned) [Example 46, 8-Bromo-N-(5-chloro-6-(2H-1,2,3-triazol-2-yl)pyridin-3-yl)-2-ethyl-2,3-dihydro-4H-pyrido[4,3-b][1,4]oxazine-4-carboxamide] |  | 30 | 740 | 
9 | O=C(Nc1cnc(-n2nccn2)c(Cl)c1)N1CC(C(F)(F)F)Oc2c(Br)cncc21 (single isomer, unassigned) [Example 40, 8-Bromo-N-(5-chloro-6-(2H-1,2,3-triazol-2-yl)pyridin-3-yl)-2-(trifluoromethyl)-2,3-dihydro-4H-pyrido[4,3-b][1,4]oxazine-4-carboxamide] | 300 | 60 |  | 340
10 | CC(C)C1CN(C(=O)Nc2cnc(-n3nccn3)c(Cl)c2)c2cncc(Br)c2O1 (single isomer, unassigned) [Example 48, 8-Bromo-N-(5-chloro-6-(2H-1,2,3-triazol-2-yl)pyridin-3-yl)-2-isopropyl-2,3-dihydro-4H-pyrido[4,3-b][1,4]oxazine-4-carboxamide] |  | 80 | > 10000 | 

The next lines start with the values.

Row | IC50 ([1]; Homo sapiens, Jurkat, 48 h) [nM] | IC50 [2] [nM] | IC50 ([1]; 48 hours) [nM] | IC50 [3] [nM] | Structure (SMILES)
11 | 1700 | 2200 |  |  | Nc1ncc2c(c1Br)OCCN2C(=O)Nc1cnc(-n2nccn2)c(Cl)c1 [Example 36, 7-Amino-8-bromo-N-(5-chloro-6-(2H-1,2,3-triazol-2-yl)pyridin-3-yl)-2,3-dihydro-4H-pyrido[4.3-b][1.4]oxazine-4-carboxamide]
12 |  | 130 | > 10000 |  | CCC1CN(C(=O)Nc2cnc(-n3nccn3)c(Cl)c2)c2cncc(Br)c2O1 (single isomer, unassigned) [Example 47, 8-Bromo-N-(5-chloro-6-(2H-1,2,3-triazol-2-yl)pyridin-3-yl)-2-ethyl-2,3-dihydro-4H-pyrido[4,3-b][1,4]oxazine-4-carboxamide]
13 | 1200 | 120 |  | 1800 | CC1(C)CN(C(=O)Nc2cnc(-n3nccn3)c(Cl)c2)c2cncc(Cl)c2O1 [Example 32, 8-Chloro-N-(5-chloro-6-(2H-1,2,3-triazol-2-yl)pyridin-3-yl)-2,2-dimethyl-2,3-dihydro-4H-pyrido[4,3-b][1,4]oxazine-4-carboxamide]
14 |  | 120 | 4460 |  | CC(C)C1CN(C(=O)Nc2cnc(-n3nccn3)c(Cl)c2)c2cncc(Br)c2O1 (single isomer, unassigned) [Example 49, 8-Bromo-N-(5-chloro-6-(2H-1,2,3-triazol-2-yl)pyridin-3-yl)-2-isopropyl-2,3-dihydro-4H-pyrido[4,3-b][1,4]oxazine-4-carboxamide]
15 | 1100 | 150 |  | 730 | CC1(C)CN(C(=O)Nc2cnc(-n3nccn3)c(Cl)c2)c2cncc(Br)c2O1 [Example 19, 8-Bromo-N-(5-chloro-6-(2H-1,2,3-triazol-2-yl)pyridin-3-yl)-2,2-dimethyl-2,3-dihydro-4H-pyrido[4,3-b][1,4]oxazine-4-carboxamide]
16 | 350 | 60 |  |  | N#Cc1cncc2c1OC(C(F)(F)F)CN2C(=O)Nc1cnc(-n2nccn2)c(Cl)c1 (single isomer, unassigned) [Example 55, N-(5-Chloro-6-(2H-1,2,3-triazol-2-yl)pyridin-3-yl)-8-cyano-2-(trifluoromethyl)-2,3-dihydro-4H-pyrido[4,3-b][1,4]oxazine-4-carboxamide]
17 | > 10000 | 1400 |  | 3900 | Cc1ncc2c(c1Br)OCCN2C(=O)Nc1cnc(-n2nccn2)c(Cl)c1 [Example 41, 8-Bromo-N-(5-chloro-6-(2H-1,2,3-triazol-2-yl)pyridin-3-yl)-7-methyl-2,3-dihydro-4H-pyrido[4,3-b][1,4]oxazine-4-carboxamide]
18 | 1400 | 60 |  |  | Cc1ncc2c(c1Br)OC(C(F)(F)F)CN2C(=O)Nc1cnc(-n2nccn2)c(Cl)c1 (single isomer, unassigned) [Example 43, 8-Bromo-N-(5-chloro-6-(2H-1,2,3-triazol-2-yl)pyridin-3-yl)-7-methyl-2-(trifluoromethyl)-2,3-dihydro-4H-pyrido[4,3-b][1,4]oxazine-4-carboxamide]
19 | 1900 | 190 |  | 850 | CC1(C#N)CN(C(=O)Nc2cnc(-n3nccn3)c(Cl)c2)c2cccc(Br)c2O1 (stereo not drawn) [Example 18, 8-Bromo-N-(5-chloro-6-(2H-1,2,3-triazol-2-yl)pyridin-3-yl)-2-cyano-2-methyl-2,3-dihydro-4H-benzo[b][1,4]oxazine-4-carboxamide]
20 | > 10000 | > 3000 |  | 2300 | O=C(Nc1cnc(-n2nccn2)c(Cl)c1)N1CCOc2c(Br)cncc21 [Example 21, 8-Bromo-N-(5-chloro-6-(2H-1,2,3-triazol-2-yl)pyridin-3-yl)-2,3-dihydro-4H-pyrido[4,3-b][1,4]oxazine-4-carboxamide]

Reference: patent US20250136577A1, “HETEROCYCLIC DERIVATIVES AS MALT1 INHIBITORS” (C4X Discovery Limited, priority 2022, published 2025)
